We go through 6 compounds from article PMC12243099, “Thieno[2,3-b]pyridine compounds potently inhibit prostate cancer growth and motility” (Endocrine Oncology, 2025).

The test system of assay [1] is PC3. The assay can be described thus: Crystal violet proliferation assay, PC3. The assay is classed as cell-based. The following applies: PC3, AR negative, 72 h treatment, mean. The method, then: (§1) Cells were seeded at a density of 2 × 10^4 in 96-well plates and left to adhere overnight before treatment with the inhibitors. After 72 h of treatment, cells were fixed in 2% paraformaldehyde for 1 h, washed 3× with ddH2O and left to dry. 0.04% crystal violet (dissolved in ddH2O) was added to each well and the plates incubated for 1 h. The plates were again washed 3× with ddH2O and left to dry. Crystal violet was solubilised with 10% acetic acid (1 h at room temperature with rocking) and the optical density of each well measured at 570 nm with a plate reader (CLARIOstar, BMG Labtech, Germany).
(§2) (A) The non-tumorigenic controls PNT1A and BPH1, and prostate cancer cell lines LNCaP, C42, C42B, 22RV1, DU145 and PC3 were seeded 24 h before treatment with a dose range of the thieno[2,3-b]pyridine compounds (DJ97, DJ144, DJ145, DJ154 and DJ160). After 72 h of treatment, cells were fixed, stained with crystal violet and absorbance measured using a spectrophotometer microplate reader (FLUOstar Omega) at 490 nm. Mean ± SE of three independent repeats (six replicates for each concentration per experiment). (B) Western blotting was performed on lysates from the different cell lines and membranes probed with antibodies specific for PLCγ1, PLCγ2, AR and ⍺-tubulin. (C) PC3 cells were seeded in 10 cm plates and treated with a dose range of DJ160 for 24 h. Cells were collected and PLC activity measured, and enzymatic activity calculated. Mean of 3 repeats ± SD. TEXT PRINTED IN THE PICTURE: (C) DJ160: PLC activity (mol/min): 0.19 ± 0.005 (DJ160 (μM): 0); PLC activity (mol/min): 0.19 ± 0.005 (DJ160 (μM): 0.01); PLC activity (mol/min): 0.17 ± 0.005 (DJ160 (μM): 0.1); PLC activity (mol/min): 0.23 ± 0.004 (DJ160 (μM): 1); PLC activity (mol/min): 0.22 ± 0.010 (DJ160 (μM): 10)

Assay [2] deals with DU145. The assay is described as follows: Crystal violet proliferation assay, DU145. The assay is classed as cell-based. As to conditions: Homo sapiens, DU-145; DU145, AR negative; 72 h treatment; mean. Here is the method: as §1, §2
Assay [3] concerns BPH1. The assay can be described thus: Crystal violet proliferation assay, BPH1. The following applies: BPH1, non-tumorigenic, 72 h treatment, mean; for IC50: Homo sapiens, BPH-1. Type of assay: cell-based. The method, then:
as §1, §2

Assay [4] relates to LNCaP. The assay can be described thus: Crystal violet proliferation assay, LNCaP. Type of assay: cell-based. The following applies: AR positive, 72 h treatment, mean. The method, then: as §1, §2
Assay [5] deals with C42. The assay is described as follows: Crystal violet proliferation assay, C42. The assay is classed as cell-based. As to conditions: C42, AR positive, 72 h treatment, mean. The method, then: as §1, §2
The subject of assay [6] is C42B. The assay is described as follows: Crystal violet proliferation assay, C42B. As to conditions: AR positive, 72 h treatment, mean. The assay is classed as cell-based. Here is the method: as §1, §2
Assay [7] relates to PNT1A. The assay is described as follows: Crystal violet proliferation assay, PNT1A. Type of assay: cell-based. As to conditions: Homo sapiens, non-tumorigenic, 72 h treatment, mean. Here is the method: as §1, §2
In assay [8] the test system is 22RV1. The assay is described as follows: Crystal violet proliferation assay, 22RV1. The assay is classed as cell-based. The following applies: Homo sapiens; 22RV1, AR positive; 72 h treatment; mean. The method, then:
as §1, §2

Assay [9] concerns PC3 cells. The assay is described as follows: Cell cycle analysis (PI staining, flow cytometry). As to conditions: 1 μM, 24 h. The assay is classed as cell-based. The method, then:
Cells were seeded in 12-well plates, incubated overnight and treated with the inhibitors. The cells were incubated for 72 h before harvesting. Cells were pelleted (200 g, 5 min) and washed with PBS. The wash was removed and cells fixed with 70% EtOH, added dropwise with agitation. The cells were incubated at 4°C overnight, pelleted, washed with PBS and resuspended in PBS containing PI and RNase A, as previously described ([Brooke et al. 2011]). The percentage of cells in each phase of the cell cycle was subsequently quantified using an Accuri C6 Flow Cytometer (BD Biosciences, USA).
Figure 3 The thieno[2,3-b]pyridine compounds promote G2/M cell cycle arrest in PC3 cells. PC3 cells were seeded at 30% confluence for 48 h and treated with 1 μM of the compounds (97, 144, 145, 154 and 160) or DMSO for (A) 24, (B) 48 and (C) 72 h. Cells were PI stained and DNA content measured using flow cytometry. The percentage of cells in each phase was calculated and representative histograms generated using the ACCURI C6 software (BD Biosciences). Data are the mean of three independent repeats.

The subject of assay [10] is cultured human prostate tumours. The assay is described as follows: Patient-derived tumour explants, immunohistochemistry of cleaved caspase 3. Type of assay: cell-based. As to conditions: explants of four patients, no/minimal apoptosis in patients 1 and 2. Here is the method: (§3) Explant experiments were undertaken using published methodology ([Centenera et al. 2018]). Biopsy tissue from prostate cancer patients was immediately placed in ice-cold medium straight from surgery. In the lab, tissue was dissected and seeded onto a sponge (SSP101010-32, Surgispon, Anser Medical) in 24-well plates. The explants were treated with compound 160 (100 nM) or the antiandrogen enzalutamide (10 μM) and incubated at 37°C for 48 h.
The explants were formalin fixed and wax embedded. Immunohistochemistry was performed to investigate the expression of cleaved caspase 3 (Cell Signalling 9661S (1/200)) as a marker of apoptosis. Protein expression was detected using the REAL EnVision Detection System (Peroxidase/DAB, K500711-2, DAKO).
Figure 7 Thieno[2,3-b]pyridine DJ160 inhibits activity in cultured human prostate tumours. Tumours were dissected into 1 mm^3 pieces then treated with the drugs (100 nM DJ160 and 10 μM enzalutamide (ENZA)) or vehicle control (DMSO, VC) and incubated for 48 h. (A) RNA was extracted and qPCR was performed to quantify the expression of PCNA, used as a marker of proliferation. (B) Samples were formalin-fixed and immunohistochemistry performed for cleaved caspase 3 and the number of cells per field counted. Example images for patient 3 are provided (20× magnification).

Assay [11] relates to PLC. The assay can be described thus: PLC activity assay in treated PC3 cells. As to conditions: 24 h; for PLC activity: mean of 3 repeats ± SD, 0 μM control 0.19 ± 0.005. The assay is classed as cell-based. The method, then:
PC3 cells were grown in 10 cm dishes and treated with different concentrations of DJ160 for 24 h. Cells were collected and enzymatic activity quantified using a PLC Activity Assay Kit (Sigma Aldrich), following the manufacturer’s instructions.
as §2

Assay [12] relates to PC3 cells. The assay is described as follows: Fluorescent imaging: multinucleation and cell size. The assay is classed as cell-based. The following applies: 1 μM, 24 h, no multinucleation without inhibitors. The method, then: Cells were seeded on glass coverslips and incubated overnight before treatment with the compounds. Cells were incubated for 24 h with the thieno[2,3-b]pyridines and fixed with 2% paraformaldehyde for 15 min at RT. Cells were washed 3 times with PBS and 0.1% Triton X-100 in PBS added for 10 min at RT. The washes were repeated and cells blocked with 1% BSA in 0.5% Tween for 30 min. Primary antibody (α-alpha-tubulin, clone B-5-1-2, Sigma Aldrich, USA) was diluted in the block buffer, added to the cells and incubated for 1 h. The cells were washed 3 times with PBS containing 0.5% Tween and secondary antibody applied (anti-mouse Alexa Fluor 568, Abcam, UK). […] To calculate the percentage of cells with multinucleation, ten random fields of view were imaged per slide using low magnification (10×) and the number of cells with more than 1 nucleus counted. Alterations in cell size were quantified using Fiji ([Schindelin et al. 2012]).
Figure 5 The thieno[2,3-b]pyridine compounds promote multinucleation and lead to an increase in cell size. […] Cells were PI stained and DNA content was measured using flow cytometry. […] Confocal microscopy was performed and five random images were taken for each treatment to quantify (C) percentage multinucleation and (D) relative cell size. […]

Assay [13] has as its system cultured human prostate tumours. The assay is described as follows: Patient-derived tumour explants, qPCR of PCNA (proliferation marker). The assay is classed as cell-based. As to conditions: explants of four patients, 100 nM DJ160, 48 h. Here is the method: as §3
Explants were snap frozen until RNA was extracted using a Monarch RNA extraction kit (NEB), following disruption of frozen tissue utilising mechanical disruption and enzymatic digestion with proteinase K. Then, 2 μg of RNA was reverse transcribed using Precision Nanoscript2 RT Kit (Primer Design, UK). Changes in gene expression were measured using SYBR Green Fast Master Mix (Life Technologies, USA) and QuantStudio 7 Flex Real-Time PCR System (Applied Biosystems, USA). […]
Figure 7 Thieno[2,3-b]pyridine DJ160 inhibits activity in cultured human prostate tumours. […] (A) RNA was extracted and qPCR was performed to quantify the expression of PCNA, used as a marker of proliferation. (B) Samples were formalin-fixed and immunohistochemistry performed for cleaved caspase 3 and the number of cells per field counted. […]

Assay [14] has as its system breast cancer cell lines. As to conditions: across various breast cancer cell lines; cited from earlier work.

For `Nc1c(C(=O)Nc2cccc(Br)c2)sc2nc3c(cc12)C(=O)CCC3` [DJ145], the IC50 in assay [1] (Homo sapiens, 72 h) came to 673 nM; in [2] it was 1960 nM; in [3], 4360 nM; in assay [4] (Homo sapiens, 72 h), 268 nM; in assay [5] (C4-2, 72 h), 468 nM; in assay [6], 230 nM. Also, the concentration for half-maximal inhibition (IC50) came out at 708 nM in [7] and 499 nM in assay [8]. Also, the “IC50 (nM)” value in [3] is “μM range”.
Regarding `COc1cccc(NC(=O)c2sc3nc4c(cc3c2N)C(=O)CCC4)c1` [DJ144], the IC50 in assay [1] (Homo sapiens, 72 h) came out at 214 nM; in assay [2], 271 nM; in [3], 443 nM; in assay [4] (Homo sapiens, 72 h) it was 59.4 nM; in [5] (C4-2, 72 h), 187 nM; in assay [6], 150 nM. Moreover, the IC50 is 238 nM in assay [7] and 185 nM in assay [8]. The “G2/M cell cycle arrest” value in assay [9] was “most pronounced effect”.
In the case of `Nc1c(C(=O)Nc2cccc(Cl)c2)sc2nc3c(cc12)C(=O)CCC3` [DJ97], the IC50 in assay [1] (Homo sapiens, 72 h) was 573 nM; in assay [2] it was 1400 nM; in [3] it was 3550 nM; in [4] (Homo sapiens, 72 h) it was 482 nM; in assay [5] (C4-2, 72 h), 334 nM; in [6], 333 nM. For the same compound, the IC50 in assay [7] is 324 nM; in [8], 306 nM. Besides, the “IC50 (nM)” value in assay [3] is given as “μM range”.
Turning to `Nc1c(C(=O)Nc2cccc(Cl)c2)sc2nc3c(cc12)CCCC3` [DJ154], the IC50 in [1] (Homo sapiens, 72 h) worked out at 723 nM; in assay [2], 660 nM; in assay [3] it was 806 nM; in [4] (Homo sapiens, 72 h), 452 nM; in [5] (C4-2, 72 h), 246 nM; in assay [6], 512 nM. The IC50 in assay [7] worked out at 902 nM; in [8] it was 521 nM.
In the case of `CNC(=O)c1ccc(N2C(=S)N(c3ccc(C#N)c(C(F)(F)F)c3)C(=O)C2(C)C)cc1F` [enzalutamide, reference compound], the “cleaved caspase 3-positive cells (apoptosis)” value in assay [10] (10 μM enzalutamide, 48 h) is “increase in the percentage of cleaved caspase-positive cells in patient samples 3 and 4”.
Turning to `Cc1c(Cl)cccc1NC(=O)c1sc2nc3c(cc2c1N)C(=O)CCC3` [DJ160], in assay [10] (100 nM DJ160, 48 h), the “cleaved caspase 3-positive cells (apoptosis)” value was “increase in the percentage of cleaved caspase-positive cells in patient samples 3 and 4”. The IC50 in [1] (Homo sapiens, 72 h) is less than 50 nM; in assay [1] it was 46.5 nM; in assay [2] it was 83.9 nM; in assay [3], 151 nM; in assay [4], 44.9 nM; in assay [4] (Homo sapiens, 72 h), less than 50 nM. Further, the concentration for half-maximal inhibition (IC50) was less than 50 nM in [5] (C4-2, 72 h); 29 nM in assay [5]; more than 100 nM in assay [14]; 54 nM in [6]; 82.6 nM in assay [7]; 100 nM in [8]. Besides, the “PLC activity” value was 0.19 ± 0.005 mol/min in assay [11] (DJ160 0.01 μM), 0.17 ± 0.005 mol/min in [11] (DJ160 0.1 μM), 0.23 ± 0.004 mol/min in assay [11] (DJ160 1 μM) and 0.22 ± 0.010 mol/min in [11] (DJ160 10 μM). Besides, the “effect upon pan-PLC activity” value in assay [11] (dose range) is reported as “little effect”. In addition, in assay [12], the “percentage of cells with multinucleation” value was “more than 30%”. For the same compound, in assay [13], the “reduction of PCNA expression compared to untreated samples” value is on record as “approximately 80%”. The “G2/M cell cycle arrest” value in assay [9] is listed as “most pronounced effect”.
